Assay results from publication PMC4058678 (The Biochemical journal, 2009).
Where two headings read alike, the source gives them in different places.

Columns and labels:
myeloperoxidase (MPO) [1] = target: T1, myeloperoxidase (MPO) (Homo sapiens, UniProt P05164); assay: HOCl production by isolated MPO-H2O2-Cl− system; format: biochemical
myeloperoxidase (MPO) [2] = target: T1, myeloperoxidase (MPO); assay: HOCl production by isolated MPO-H2O2-Cl− system; format: biochemical; remark: listed apart in the source

T1 sequence (P05164 165-273): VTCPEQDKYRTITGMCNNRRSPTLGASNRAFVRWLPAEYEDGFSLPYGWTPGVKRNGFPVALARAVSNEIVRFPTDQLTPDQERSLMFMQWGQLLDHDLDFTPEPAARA
T1 sequence (P05164 279-745): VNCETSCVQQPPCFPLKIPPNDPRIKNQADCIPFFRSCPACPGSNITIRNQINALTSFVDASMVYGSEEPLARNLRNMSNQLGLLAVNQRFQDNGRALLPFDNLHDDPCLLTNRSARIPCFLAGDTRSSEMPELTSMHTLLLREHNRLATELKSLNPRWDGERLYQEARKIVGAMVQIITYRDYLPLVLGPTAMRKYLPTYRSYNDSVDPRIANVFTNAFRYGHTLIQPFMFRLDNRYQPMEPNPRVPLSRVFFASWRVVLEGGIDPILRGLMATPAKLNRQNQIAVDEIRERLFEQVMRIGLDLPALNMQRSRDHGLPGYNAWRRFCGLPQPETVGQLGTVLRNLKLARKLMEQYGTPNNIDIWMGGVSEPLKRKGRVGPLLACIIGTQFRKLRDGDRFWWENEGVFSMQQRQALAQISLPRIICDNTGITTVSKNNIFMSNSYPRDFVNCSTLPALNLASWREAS

Row | SMILES | IC50 (myeloperoxidase (MPO) [1]) | IC50 (myeloperoxidase (MPO) [2])
1 | CC1(C)CC(N)C(C)(C)N1[O] (centres unmarked) [3-AminoPROXYL, 3-amino-2,2,5,5-tetramethylpyrrolidin-1-yloxyl] | 2700 nM | 
2 | CC1(C)CC(N)CC(C)(C)N1[O] [4-AminoTEMPO, 4-amino-2,2,6,6-tetramethylpiperidin-1-yloxyl] |  | 1200 nM
